The values that follow are results of earlier work, collected in patent US20220323439A1, “URACIL DERMAL PHARMACEUTICAL FORMULATION” (NANOMETICS LLC (D.B.A PHD BIOSCIENCES), priority 2019, published 2022).

The conditions of the series: oral uracil 500 mg/m^2.

`O=c1cc[nH]c(=O)[nH]1` [uracil, Uracil]: the “Cmax of uracil after oral administration” value was 20000 ng/mL.
